These are literature values, as cited in PubChem BioAssay AID1259409 (Chemical Carcinogenesis Research Information System (CCRIS), 2018).

This series deals with rodent chemically induced tumor inhibition, incidence and multiplicity. Nature of the series: CCRIS tumor inhibitor studies. Particulars: for tumour outcome (control, treated, inhibition, significance): Carcinogen: 7,12-DIMETHYLBENZ[A]ANTHRACENE, 57-97-6, Route [Inhibitor]: DERMAL, Species: MOUSE, Strain/Sex: ICR/FEMALE, Target Tissue: Type of Lesion: SKIN: TUMOR, Dose [Carcinogen]: 0.19 UMOL IN 0.1 ML ACETONE ONCE, Promoter: 12-O-TETRADECANOYLPHORBOL-13-ACETATE, 16561-29-8; for outcome: Carcinogen: 4-NITROQUINOLINE 1-OXIDE [56-57-5], Route [Inhibitor]: ORAL (DIET), Species: RAT, Dose [Carcinogen]: 20 PPM FOR 8 WKS STARTING AT 7 WKS OF AGE (STUDY DURATION: 32 WKS).

For `CC/C=C\C/C=C\C/C=C\CCCCCCCC(=O)O`, the “tumour outcome (control, treated, inhibition, significance)” value (Dose [Inhibitor]: 0, 16 NMOL IN 0.1 ML ACETONE 2/WK FOR 20 WK APPLIED 40 MIN PRIOR TO EACH PROMOTER DOSE (STUDY DURATION: 21 WK)) is reported as 87%, 80%, 8%, not significant and the “tumour outcome (control, treated, inhibition, significance)” value (Dose [Inhibitor]: 0, 160 NMOL IN 0.1 ML ACETONE 2/WK FOR 20 WK APPLIED 40 MIN PRIOR TO EACH PROMOTER DOSE (STUDY DURATION: 21 WK)) was 87%, 47%, 46%, p<0.005.

Turning to `C=C(C)[C@@H](CC=C(C)C)CC12C[C@@H](CC=C(C)C)C(C)(C)C(CC=C(C)C)(C(=O)/C(=C(\O)c3ccc(O)c(O)c3)C1=O)C2=O` (stereo partly specified), the outcome is recorded as “(13/26) 50%; (2/16) 12.5%, 75%, p<0.02; (1/16) 6.3%, 87%, p<0.005” (Dose [Inhibitor]: 0, 100, 500 PPM FOR 8 WKS STARTING AT 6 WKS OF AGE TO 1 WK AFTER CARCINOGEN EXPOSURE (STUDY DURATION: 32 WKS), Dose [Inhibitor]: 0, 100, 500 PPM FOR 8 WKS STARTING AT 6 WKS OF AGE TO 1 WK AFTER CARCINOGEN EXPOSURE (STUDY DURATION: 32 WKS), Strain/Sex: F344/MALE (?,26)/(?,16), Target Tissue: Type of Lesion: TONGUE: SQUAMOUS CELL CARCINOMA); “(4/26) 15.4%; (1/16) 6.3%, 59.1%; (1/16) 6.3%, 59.1%” (Dose [Inhibitor]: 0, 100, 500 PPM FOR 8 WKS STARTING AT 6 WKS OF AGE TO 1 WK AFTER CARCINOGEN EXPOSURE (STUDY DURATION: 32 WKS), Dose [Inhibitor]: 0, 100, 500 PPM FOR 8 WKS STARTING AT 6 WKS OF AGE TO 1 WK AFTER CARCINOGEN EXPOSURE (STUDY DURATION: 32 WKS), Strain/Sex: F344/MALE (?/26)/(?,16), Target Tissue: Type of Lesion: TONGUE: PAPILLOMA); “(4/26) 15%; (3/15) 20%, -30%; (2/15) 13%, 14%” (Dose [Inhibitor]: 100, 500 PPM STARTING 1 WK AFTER CARCINOGEN FOR 22 WKS (STUDY DURATION: 32 WKS), Strain/Sex: F344/MALE (?,26)/(?,15), Target Tissue: Type of Lesion: TONGUE: PAPILLOMA); “(13/26) 50%; (1/15) 6.7%, 87%, p<0.05; (0/15) 0%, 100%, p<0.001” (Dose [Inhibitor]: 100, 500 PPM STARTING 1 WK AFTER CARCINOGEN FOR 22 WKS (STUDY DURATION: 32 WKS), Strain/Sex: F344/MALE (?,26)/(?,15), Target Tissue: Type of Lesion: TONGUE: SQUAMOUS CELL CARCINOMA).
